The text below walks through data of patent US8338565B2, “Macrocyclic compounds for inhibition of tumor necrosis factor alpha” (Ensemble Therapeutics Corporation, priority 2008, dated 2012).

Molecules are shown by their SMILES. Numbered stars: 1 amine (or outer) side, 2 acyl side, 3 side chain; on linkers, the order of the positions; unused ones are H or OH. Bridge positions count the residues as written; N and C are the ends. Square brackets hold non-standard residues; d marks the D form. Peptide text beside a SMILES is read from it. * marks the point of attachment. Phe(4-COOH) = N[C@@H](Cc1ccc(C(=O)O)cc1)C(=O)O; Bip = N[C@@H](Cc1ccc(-c2ccccc2)cc1)C(=O)O; Phe(4-NH2) = Nc1ccc(C[C@H](N)C(=O)O)cc1; d(hPhe) = N[C@H](CCc1ccccc1)C(=O)O; d2Thi = N[C@H](Cc1cccs1)C(=O)O; Suc = O=C(CCC(=O)[*:2])[*:1]; 3Abz = Nc1cccc(C(=O)O)c1; X1 = O=C(O)C1CCN(*)C1; GABA = NCCCC(=O)O

For one assay, the target named is T1, TNFα / TNFα receptor (TNFα R1/Fc) (Homo sapiens, UniProt P01375).
T1 construct: purchased R&D Systems
T1 sequence (P01375 77-233 limits assumed, species assumed): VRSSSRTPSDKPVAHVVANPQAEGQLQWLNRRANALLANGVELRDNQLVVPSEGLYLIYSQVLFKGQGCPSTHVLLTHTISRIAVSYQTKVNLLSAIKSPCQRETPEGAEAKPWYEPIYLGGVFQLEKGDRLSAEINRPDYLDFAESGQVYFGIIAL
Description: Inhibition of binding of TNFα to the TNFα receptor (plate ELISA competition). The conditions noted are these: Activity (IC50, inhibition of TNFα binding to TNFα R1/Fc), Table 2. Summed up:
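Compound dilutions were preincubated 30 min at RT with 8.33 nM TNFα R1/Fc in PBST with 2% DMSO, then added to wells coated with 15 nM TNFα for 30 min. Bound receptor was detected with HRP anti-human Fc and TMB, read as A450.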
For `O=C1COc2ccc(cc2)C[C@@H](C(=O)NCCO)NC(=O)[C@H](Cc2ccccc2)NC(=O)[C@H](Cc2ccc(-c3ccccc3)cc2)NC(=O)[C@H](Cc2cccs2)N1` [Compound 338], the IC50 is 10 to 30 µM.
In the case of `O=C1COc2ccc(cc2)CC(C(=O)O)NC(=O)C(Cc2ccccc2)NC(=O)C(Cc2ccc([N+](=O)[O-])cc2)NC(=O)C(Cc2cccs2)N1` (stereo not shown) [Compound 358], the IC50 is > 100 µM.

Still in this assay, the particulars now being: Table 2; read-out: Activity (IC50, inhibition of TNFα binding to TNFα R1/Fc).
Consider `O=C(O)[C@@H]1Cc2ccc(cc2)NC(=O)[C@H](O)[C@@H](O)C(=O)N[C@H](Cc2ccccc2Cl)C(=O)N[C@@H](Cc2ccc(-c3ccccc3)cc2)C(=O)N[C@H](Cc2ccccc2)C(=O)N1` [Compound 315], for which the IC50 is 10 to 30 µM.
For the compound `N#Cc1cccc(C[C@H]2NC(=O)[C@H](O)[C@@H](O)C(=O)Nc3ccc(cc3)C[C@@H](C(=O)O)NC(=O)[C@@H](Cc3ccccc3)NC(=O)[C@H](Cc3ccc(-c4ccccc4)cc3)NC2=O)c1` [Compound 316], the IC50 was 10 to 30 µM.
Consider `COc1cccc(C[C@H]2NC(=O)[C@H](O)[C@@H](O)C(=O)Nc3ccc(cc3)C[C@@H](C(=O)O)NC(=O)[C@@H](Cc3ccccc3)NC(=O)[C@H](Cc3ccc(-c4ccccc4)cc3)NC2=O)c1` [Compound 317], for which the IC50 lay within 10 to 30 µM.
For the compound `O=C1COc2ccc(cc2)C[C@@H](C(=O)NCCO)NC(=O)[C@@H](CCc2ccccc2)NC(=O)[C@H](Cc2ccc(-c3ccccc3)cc2)NC(=O)[C@@H](Cc2cccs2)N1` [Compound 322], the IC50 lay in the range of 10 to 30 µM.
For the compound `O=C(O)CNC(=O)[C@@H]1Cc2ccc(cc2)OCC(=O)N[C@@H](Cc2cccs2)C(=O)N[C@@H](Cc2ccc(-c3ccccc3)cc2)C(=O)N[C@@H](Cc2ccccc2)C(=O)N1` [Compound 329], the IC50 is < 10 µM.
As to `COc1ccc(-c2ccc(C[C@@H]3NC(=O)[C@@H](Cc4cccs4)NC(=O)[C@H](O)[C@@H](O)C(=O)Nc4ccc(cc4)C[C@@H](C(=O)O)NC(=O)[C@@H](Cc4ccccc4)NC3=O)cc2)cc1` [Compound 333], the IC50 lay in the range of 30 to 100 µM.
Consider `O=C(O)[C@@H]1Cc2ccc(cc2)NC(=O)[C@H](O)[C@@H](O)C(=O)N[C@H](Cc2cccs2)C(=O)N[C@@H](Cc2ccc(-c3ccc(F)cc3)cc2)C(=O)N[C@H](Cc2ccccc2)C(=O)N1` [Compound 334], for which the IC50 lay within 30 to 100 µM.
For the compound `O=C(OCc1ccccc1)c1ccc(-c2ccc(C[C@@H]3NC(=O)[C@@H](Cc4cccs4)NC(=O)[C@H](O)[C@@H](O)C(=O)Nc4ccc(cc4)C[C@@H](C(=O)O)NC(=O)[C@@H](Cc4ccccc4)NC3=O)cc2)cc1` [Compound 335], the IC50 lay within 10 to 30 µM.
Turning to `O=C(Nc1ccc(-c2ccc(C[C@@H]3NC(=O)[C@@H](Cc4cccs4)NC(=O)[C@H](O)[C@@H](O)C(=O)Nc4ccc(cc4)C[C@@H](C(=O)O)NC(=O)[C@@H](Cc4ccccc4)NC3=O)cc2)cc1)OCc1ccccc1` [Compound 336], the IC50 is 10 to 30 µM.
Regarding `O=C1N[C@H](CCc2ccccc2)C(=O)N[C@@H](Cc2ccc(-c3ccccc3)cc2)C(=O)N[C@H](Cc2ccccc2)C(=O)N[C@H](C(=O)O)Cc2ccc1cc2` [Compound 337] ([d(hPhe)][Bip][dF][Phe(4-COOH)]-OH; lactam N-4), the IC50 is > 100 µM.
In the case of `O=C(O)CN(Cc1ccccc1)C(=O)[C@@H]1Cc2ccc(cc2)OCC(=O)N[C@@H](Cc2cccs2)C(=O)N[C@@H](Cc2ccc(-c3ccccc3)cc2)C(=O)N[C@@H](Cc2ccccc2)C(=O)N1` [Compound 340], the IC50 is < 10 µM.
As for `O=C(O)C[C@H](NC(=O)[C@@H]1Cc2ccc(cc2)OCC(=O)N[C@@H](Cc2cccs2)C(=O)N[C@@H](Cc2ccc(-c3ccccc3)cc2)C(=O)N[C@@H](Cc2ccccc2)C(=O)N1)C(=O)O` [Compound 345], the IC50 was 30 to 100 µM.
On to `CC(C)(C)Oc1ccc(C[C@@H]2NC(=O)[C@H](Cc3ccc(-c4ccccc4)cc3)NC(=O)[C@H](Cc3cccs3)NC(=O)COc3ccc(cc3)C[C@@H](C(=O)O)NC2=O)cc1` [Compound 347], for which the IC50 was in the range of 30 to 100 µM.
Consider `CC(C)(C)OC(=O)CC[C@@H]1NC(=O)[C@@H](Cc2ccc(-c3ccccc3)cc2)NC(=O)[C@H](Cc2cccs2)NC(=O)COc2ccc(cc2)C[C@@H](C(=O)O)NC1=O` [Compound 349], for which the IC50 lay within 10 to 30 µM.
`COC(=O)[C@@H](CC(=O)O)NC(=O)[C@@H]1Cc2ccc(cc2)NC(=O)CCC(=O)N[C@H](CCc2ccccc2)C(=O)N[C@@H](Cc2ccc(-c3ccccc3)cc2)C(=O)N[C@H](Cc2ccccc2)C(=O)N1` [Compound 351] ([d(hPhe)][Bip][dF][Phe(4-NH2)][dD]-OMe; linker N-4 via Suc): the IC50 is 10 to 30 µM.
In the case of `O=C1CCC(=O)N[C@H](CCc2ccccc2)C(=O)N[C@@H](Cc2ccc(-c3ccccc3)cc2)C(=O)N[C@H](Cc2ccccc2)C(=O)N[C@H](C(=O)Nc2cccc(C(=O)O)c2)Cc2ccc(cc2)N1` [Compound 352] ([d(hPhe)][Bip][dF][Phe(4-NH2)][3Abz]-OH; linker N-4 via Suc), the IC50 is > 100 µM.
As for `O=C1CCC(=O)N[C@H](CCc2ccccc2)C(=O)N[C@@H](Cc2ccc(-c3ccccc3)cc2)C(=O)N[C@H](Cc2ccccc2)C(=O)N[C@H](C(=O)N2CCC(C(=O)O)C2)Cc2ccc(cc2)N1` (stereo partly shown) [Compound 353] ([d(hPhe)][Bip][dF][Phe(4-NH2)]-X1; linker N-4 via Suc), the IC50 is > 100 µM.
Regarding `O=C(O)CCCNC(=O)[C@@H]1Cc2ccc(cc2)NC(=O)CCC(=O)N[C@H](CCc2ccccc2)C(=O)N[C@@H](Cc2ccc(-c3ccccc3)cc2)C(=O)N[C@H](Cc2ccccc2)C(=O)N1` [Compound 354] ([d(hPhe)][Bip][dF][Phe(4-NH2)][GABA]-OH; linker N-4 via Suc), the IC50 was > 100 µM.
For the compound `O=C1COc2ccc(cc2)C[C@@H](C(=O)O)NC(=O)[C@H](Cc2ccccc2)NC(=O)[C@@H](Cc2ccc(F)cc2)NC(=O)[C@H](Cc2cccs2)N1` [Compound 355], the IC50 is > 100 µM.
Consider `O=C1COc2ccc(cc2)C[C@@H](C(=O)O)NC(=O)[C@H](Cc2ccccc2)NC(=O)[C@@H](Cc2cccc(Cl)c2)NC(=O)[C@H](Cc2cccs2)N1` [Compound 356], for which the IC50 is > 100 µM.
With `O=C1COc2ccc(cc2)C[C@@H](C(=O)O)NC(=O)[C@H](Cc2ccccc2)NC(=O)[C@@H](Cc2cccc3ccccc23)NC(=O)[C@H](Cc2cccs2)N1` [Compound 357], the IC50 is > 100 µM.
Turning to `O=C1COc2ccc(cc2)C[C@@H](C(=O)O)NC(=O)[C@H](Cc2ccccc2)NC(=O)[C@H](Cc2ccc(Br)cc2)NC(=O)[C@H](Cc2cccs2)N1` [Compound 359], the IC50 was > 100 µM.
Consider `NCCCC[C@H](NC(=O)[C@@H]1Cc2ccc(cc2)NC(=O)[C@H](O)[C@@H](O)C(=O)N[C@H](Cc2cccs2)C(=O)N[C@@H](Cc2ccc(-c3ccccc3)cc2)C(=O)N[C@H](Cc2ccccc2)C(=O)N1)C(=O)O` [Compound 360], for which the IC50 is > 100 µM.
For `O=C1COc2ccc(cc2)C[C@@H](C(=O)O)NC(=O)[C@H](Cc2ccccc2)NC(=O)[C@H](Cc2ccc(-c3ccc(C(=O)O)cc3)cc2)NC(=O)[C@H](Cc2cccs2)N1` [Compound 361], the IC50 is > 100 µM.
In the case of `O=C1COc2ccc(cc2)C[C@@H](C(=O)O)NC(=O)[C@H](Cc2ccccc2)NC(=O)[C@H](Cc2ccc(-c3ccc(Cl)cc3)cc2)NC(=O)[C@H](Cc2cccs2)N1` [Compound 365], the IC50 lay in the range of 30 to 100 µM.
Still for that read-out and setting: the value for `O=C1COc2ccc(cc2)C[C@@H](C(=O)O)NC(=O)[C@H](Cc2ccccc2)NC(=O)[C@H](Cc2ccc(Cl)cc2Cl)NC(=O)[C@H](Cc2cccs2)N1` [Compound 367] was > 100 µM.
The same measure, in the same setting: the value for `O=C1COc2ccc(cc2)C[C@@H](C(=O)O)NC(=O)[C@H](c2ccccc2)NC(=O)[C@@H](Cc2ccc(-c3ccccc3)cc2)NC(=O)[C@H](Cc2cccs2)N1` [Compound 368] was > 100 µM; that for `CN(C)C(=O)[C@@H]1Cc2ccc(cc2)NC(=O)CCC(=O)N[C@H](CCc2ccccc2)C(=O)N[C@@H](Cc2ccc(-c3ccccc3)cc2)C(=O)N[C@H](Cc2ccccc2)C(=O)N1` [Compound 370] ([d(hPhe)][Bip][dF][Phe(4-NH2)]-NMe2; linker N-4 via Suc) was > 100 µM; that for `N[C@H]1CC(=O)Nc2ccc(cc2)C[C@@H](C(=O)O)NC(=O)[C@@H](Cc2ccccc2)NC(=O)[C@H](Cc2ccc(-c3ccccc3)cc2)NC(=O)[C@@H](Cc2cccs2)NC1=O` [Compound 371] (H-D[d2Thi][Bip][dF][Phe(4-NH2)]-OH; lactam 1-5) was > 100 µM.
As to `N[C@@H]1CC(=O)Nc2ccc(cc2)C[C@@H](C(=O)O)NC(=O)[C@@H](Cc2ccccc2)NC(=O)[C@H](Cc2ccc(-c3ccccc3)cc2)NC(=O)[C@@H](Cc2cccs2)NC1=O` [Compound 372] (H-[dD][d2Thi][Bip][dF][Phe(4-NH2)]-OH; lactam 1-5), the IC50 is > 100 µM.
On to `N[C@H]1CC(=O)N[C@H](Cc2cccs2)C(=O)N[C@@H](Cc2ccc(-c3ccccc3)cc2)C(=O)N[C@H](Cc2ccccc2)C(=O)N[C@H](C(=O)O)Cc2ccc(cc2)NC1=O` [Compound 373], for which the IC50 is > 100 µM.
`N[C@@H]1CC(=O)N[C@H](Cc2cccs2)C(=O)N[C@@H](Cc2ccc(-c3ccccc3)cc2)C(=O)N[C@H](Cc2ccccc2)C(=O)N[C@H](C(=O)O)Cc2ccc(cc2)NC1=O` [Compound 374]: the IC50 is > 100 µM.
For `CC(=O)N[C@H]1CC(=O)Nc2ccc(cc2)C[C@@H](C(=O)O)NC(=O)[C@@H](Cc2ccccc2)NC(=O)[C@H](Cc2ccc(-c3ccccc3)cc2)NC(=O)[C@@H](Cc2cccs2)NC1=O` [Compound 375] (Ac-D[d2Thi][Bip][dF][Phe(4-NH2)]-OH; lactam 1-5), the IC50 is > 100 µM.
Turning to `CC(=O)N[C@@H]1CC(=O)Nc2ccc(cc2)C[C@@H](C(=O)O)NC(=O)[C@@H](Cc2ccccc2)NC(=O)[C@H](Cc2ccc(-c3ccccc3)cc2)NC(=O)[C@@H](Cc2cccs2)NC1=O` [Compound 376] (Ac-[dD][d2Thi][Bip][dF][Phe(4-NH2)]-OH; lactam 1-5), the IC50 lay within 10 to 30 µM.
With `CC(=O)N[C@H]1CC(=O)N[C@H](Cc2cccs2)C(=O)N[C@@H](Cc2ccc(-c3ccccc3)cc2)C(=O)N[C@H](Cc2ccccc2)C(=O)N[C@H](C(=O)O)Cc2ccc(cc2)NC1=O` [Compound 377], the IC50 was > 100 µM.
